Experimental data published in patent US10576059B2, “Substituted phenylpyrrolecarboxamides with therapeutic activity in HIV” (New York Blood Center, Inc., priority 2014, dated 2020).
Where two headings read alike, the source gives them in different places.

Tests used:
HIV-1 Integrase = target: T1, HIV-1 Integrase (Human immunodeficiency virus type 1 group M subtype B, UniProt P04585); experiment: HIV-1 Integrase Assay; format: biochemical; conditions: HIV-1 Integrase Assay Kit from ExpressBio
T1 construct: HIV-1 Integrase Assay Kit from ExpressBio; purchased ExpressBio (Thurnmont, Md.)
Method: HIV-1 Integrase was performed as per the protocol in the HIV-1 Integrase Assay Kit from ExpressBio (Thurnmont, Md.). (See Table 3)

[1] = tested on: panel of HIV-1 ENV-pseudoviruses (subtype A, A/D, A2/D, A/E, A/G, B, C and D); experiment: microbe, parasite or virus in culture; format: cell-based
[2] = tested on: cell-to-cell fusion mediated by HIV-1 (HIV-1HXB2 Env); experiment: microbe, parasite or virus in culture; format: cell-based; conditions: Human immunodeficiency virus 1; MAGI-CCR5 and HL 2/3 cells, 24 h, β-gal readout
Method: To assess the ability of NBD-compounds to block cell-to-cell fusion mediated by HIV-1 we performed cell fusion assay as previously described 3^1-3 with some modifications. […] Following fusion of the two cell lines Tat induce the expression of β-gal enzyme. […] The percent inhibition and the IC50 values were calculated using the GraphPad Prism software.

[3] = tested on: lab-adapted and primary HIV-1 isolates; experiment: microbe, parasite or virus in culture; conditions: Human immunodeficiency virus 1, PBMC
Method: (§1) PBMCs were isolated from the blood of healthy donors at the New York Blood Center by standard density gradient centrifugation using Histopaque-1077 (Sigma-Aldrich). The cells were cultured at 37° C. for 2 hr. […] The PHA-stimulated cells (5×10^4 cells/well) were infected with lab-adapted and primary HIV-1 isolates at 500 TCID50 (0.01 MOI) in the absence or presence of inhibitors at graded concentrations. Culture media were replaced every 3 days with fresh media. The supernatants were collected 7 days post-infection and tested for p24 antigen by ELISA. The percent inhibition of p24 production and IC50 values were calculated by the GraphPad Prism software.

[4] = tested on: laboratory-adapted HIV-1 strains; experiment: microbe, parasite or virus in culture; format: cell-based
PBMC = experiment: Cytotoxicity in PBMC (XTT); format: cell-based; conditions: 7 days
Method: For the PBMC toxicity assay we used 5×10^5 cells/ml and the cytotoxicity of the compounds was measured after 7 days of incubation as previously reported^8. Following the addition of XTT the soluble intracellular formazan was quantitated colorimetrically at 450 nm 4 h later. The percent of cytotoxicity and the CC50 values were calculated as above. (See Table 4)

MT-2 cells = experiment: Cytotoxicity in MT-2 cells (XTT); format: cell-based; conditions: 4 days
Method: Cytotoxicity of test compounds in MT-2 cells was measured a by colorimetric method using XTT [(sodium 3′-(1-(phenylamino)-carbonyl)-3,4-tetrazolium-bis(4-methoxy-6-nitro) benzenesulfonic acid hydrate)] (PolySciences) as previously described^7. Briefly, 100 μl of a test compound at graded concentrations was added to an equal volume of cells (1×10^5 cells/ml) in 96 well plates followed by incubation at 37° C. for 4 days, which ran parallel to the neutralization assay in MT-2. Following the addition of XTT the soluble intracellular formazan was quantitated colorimetrically at 450 nm 4 h later. […] (See Table 4)

[5] = tested on: lab-adapted and primary HIV-1 isolates; conditions: read-out: IC50 (μm); Laboratory strain BaL, subtype B, PBMC, co-receptor R5
Method: as §1

[6] = Human immunodeficiency virus 1, TZM-bl, read-out: IC50 (μM) ± S.D., subtype A2/D, NIH # 11906, ENV QG393.60M.ENV.B7
[7] = Human immunodeficiency virus 1, TZM-bl, read-out: IC50 (μM) ± S.D., subtype A, NIH # 11888, ENV QB726.70M.ENV.C4
[8] = Human immunodeficiency virus 1, TZM-bl, read-out: IC50 (μM) ± S.D., subtype A, NIH # 11889, ENV QB726.70M.ENV.B3
[9] = Human immunodeficiency virus 1, TZM-bl, read-out: IC50 (μM) ± S.D., subtype A/E (potential), NIH # 11603, ENV CRF01_AE clone 269
[10] = Human immunodeficiency virus 1, TZM-bl, read-out: IC50 (μM) ± S.D., subtype A/G, NIH # 11605, ENV CRF02_AG clone 278
[11] = Human immunodeficiency virus 1, TZM-bl, read-out: IC50 (μM) ± S.D., subtype B, ENV B41
[12] = Human immunodeficiency virus 1, TZM-bl, read-out: IC50 (μM) ± S.D., subtype B, NIH # 11018, ENV QH0692, clone 42
[13] = Human immunodeficiency virus 1, TZM-bl, read-out: IC50 (μM) ± S.D., subtype B, NIH # 11022, ENV PVO, clone 4
[14] = Human immunodeficiency virus 1, TZM-bl, read-out: IC50 (μM) ± S.D., subtype B, NIH # 11035, ENV pREJO4541 clone 67
[15] = Human immunodeficiency virus 1, TZM-bl, read-out: IC50 (μM) ± S.D., subtype C, NIH # 11307, ENV Du172, clone 17
[16] = Human immunodeficiency virus 1, TZM-bl, read-out: IC50 (μM) ± S.D., subtype C, NIH # 11311, ENV ZM233M.PB6
[17] = Human immunodeficiency virus 1, TZM-bl, read-out: IC50 (μM) ± S.D., subtype C, NIH # 11313, ENV ZM53M.PB12
[18] = Human immunodeficiency virus 1, TZM-bl, read-out: IC50 (μM) ± S.D., subtype D, NIH # 11918, ENV QD435.100M.ENV.E1

Cc1nc(C(CN)NC(=O)c2ccc(-c3ccc(Cl)cc3)[nH]2)sc1CO (single isomer, unassigned) [Compound 39]
IC50 (HIV-1 Integrase): > 100 µM

Cc1nc(C(NC(=O)c2ccc(-c3ccc(Cl)cc3)[nH]2)C2CCCCN2)sc1CO (single isomer, unassigned) [Compound 17]
IC50 [1, 6]: 0.8 ± 0.3 µM
IC50 ([1]; Human immunodeficiency virus 1, TZM-bl, read-out: IC50 (μM) ± S.D., subtype A, NIH # 11887, ENV Q259env.w6): 1.6 ± 0.1 µM
IC50 [1, 7]: 1.3 ± 0.3 µM
IC50 [1, 8]: 1.3 ± 0.4 µM
IC50 ([1]; Human immunodeficiency virus 1, TZM-bl, read-out: IC50 (μM) ± S.D., subtype A, NIH # 11890, ENV QF495.23M.ENV.A1): 1.3 ± 0.4 µM
IC50 ([1]; Human immunodeficiency virus 1, TZM-bl, read-out: IC50 (μM) ± S.D., subtype A, NIH # 11891, ENV QF495.23M.ENV.A3): 0.88 ± 0.4 µM
IC50 ([1]; Human immunodeficiency virus 1, TZM-bl, read-out: IC50 (μM) ± S.D., subtype A, NIH # 11892, ENV QF495.23M.ENV.B2): 0.6 ± 0.4 µM
IC50 ([1]; Human immunodeficiency virus 1, TZM-bl, read-out: IC50 (μM) ± S.D., subtype A/D, NIH # 11901, ENV QA790.2041.ENV.A4): 1.4 ± 0.05 µM
IC50 ([1]; Human immunodeficiency virus 1, TZM-bl, read-out: IC50 (μM) ± S.D., subtype A/D, NIH # 11903, ENV QA790.2041.ENV.C8): 1.6 ± 0.2 µM
IC50 [1, 9]: 1.5 ± 0.3 µM
IC50 ([1]; Human immunodeficiency virus 1, TZM-bl, read-out: IC50 (μM) ± S.D., subtype A/G, NIH # 11601, ENV CRF02 AG clone 263): 1.4 ± 0.3 µM
IC50 [1, 10]: 1.3 ± 0.5 µM
IC50 [1, 11]: 0.68 ± 0.1 µM
IC50 [1, 12]: 0.52 ± 0.1 µM
IC50 [1, 13]: 1.9 ± 0.1 µM
IC50 ([1]; Human immunodeficiency virus 1, TZM-bl, read-out: IC50 (μM) ± S.D., subtype B, NIH # 11033, ENV pWITO4160 clone 33): 1.7 ± 0.1 µM
IC50 [1, 14]: 1.6 ± 0.3 µM
IC50 ([1]; Human immunodeficiency virus 1, TZM-bl, read-out: IC50 (μM) ± S.D., subtype B, NIH # 11038, ENV pCAAN5342 clone A2): 0.6 ± 0.07 µM
IC50 [1, 15]: 1.9 ± 0.5 µM
IC50 [1, 16]: 1.3 ± 0.1 µM
IC50 [1, 17]: 1.5 ± 0.2 µM
IC50 ([1]; Human immunodeficiency virus 1, TZM-bl, read-out: IC50 (μM) ± S.D., subtype D, NIH # 11916, ENV QD435.100M.ENV.B5): 1.7 ± 0.5 µM
IC50 [1, 18]: 3.7 ± 0.1 µM
IC50 [2]: 10.8 µM

Cc1nc(C(NC(=O)c2ccc(-c3ccc(Cl)cc3)[nH]2)C2CCCCN2)sc1CO (single isomer, unassigned) [Compound 19]
IC50 [1, 7]: 1.5 ± 0.6 µM
IC50 [1, 9]: 1.7 ± 0.9 µM
IC50 [1, 10]: 1.8 ± 0.2 µM
IC50 ([1]; Human immunodeficiency virus 1, TZM-bl, read-out: IC50 (μM) ± S.D., subtype B, NIH # 11578, ENV pWEAUd15.410.5017): 1.7 ± 0.03 µM
IC50 ([1]; Human immunodeficiency virus 1, TZM-bl, read-out: IC50 (μM) ± S.D., subtype C, NIH # 11310, ENV ZM214M.PL15): 1.7 ± 0.6 µM
IC50 ([1]; Human immunodeficiency virus 1, TZM-bl, read-out: IC50 (μM) ± S.D., subtype C, NIH # 11314, ENV ZM109F.PB4): 1.9 ± 0.3 µM
IC50 ([1]; Human immunodeficiency virus 1, TZM-bl, read-out: IC50 (μM) ± S.D., subtype D, NIH # 11912, ENV QA013.701.ENV.M12): 1.7 ± 0.2 µM
IC50 ([1]; read-out: IC50 (μM) ± S.D., subtype A2/D, NIH # 11906, ENV QG393.60M.ENV.B7): 1.4 ± 0.5 µM
IC50 ([1]; read-out: IC50 (μM) ± S.D., subtype A, NIH # 11890, ENV QF495.23M.ENV.A1): 0.86 ± 0.4 µM
IC50 ([1]; read-out: IC50 (μM) ± S.D., subtype A, NIH # 11891, ENV QF495.23M.ENV.A3): 1.3 ± 0.3 µM
IC50 ([1]; read-out: IC50 (μM) ± S.D., subtype A, NIH # 11892, ENV QF495.23M.ENV.B2): 1.1 ± 0.2 µM
IC50 ([1]; read-out: IC50 (μM) ± S.D., subtype A/D, NIH # 11903, ENV QA790.2041.ENV.C8): 1.6 ± 0.2 µM
IC50 ([1]; read-out: IC50 (μM) ± S.D., subtype B, ENV B41): 1.1 ± 0.4 µM
IC50 ([1]; read-out: IC50 (μM) ± S.D., subtype B, NIH # 11018, ENV QH0692, clone 42): 0.9 ± 0.3 µM
IC50 ([1]; read-out: IC50 (μM) ± S.D., subtype B, NIH # 11022, ENV PVO, clone 4): 1.1 ± 0.2 µM
IC50 ([1]; read-out: IC50 (μM) ± S.D., subtype B, NIH # 11024, ENV AC10.0, clone 29): 0.74 ± 0.25 µM
IC50 ([1]; read-out: IC50 (μM) ± S.D., subtype B, NIH # 11038, ENV pCAAN5342 clone A2): 0.64 ± 0.01 µM
IC50 ([1]; subtype A, NIH # 11889, ENV QB726.70M.ENV.B3, read-out: IC50 (μM) ± S.D.): 2.4 ± 0.9 µM
IC50 [2]: 7.6 µM

Cc1nc(C(NC(=O)c2ccc(-c3ccc(Cl)cc3)[nH]2)C2CCCCN2)sc1CO (centres unmarked) [Compound 15]
IC50 ([3]; read-out: IC50 (μm), Laboratory strain BaL, subtype B, PBMC, co-receptor R5): 3700 ± 400 nM
IC50 ([3]; read-out: IC50 (μm), Primary isolate 93TH060, subtype E, PBMC, co-receptor R5): 5500 ± 1200 nM
IC50 [1, 6]: 1.7 ± 0.2 µM
IC50 [1, 8]: 1.5 ± 0.9 µM
IC50 ([1]; Human immunodeficiency virus 1, TZM-bl, read-out: IC50 (μM) ± S.D., subtype A/G, NIH # 11602, ENV CRF02_AG clone 266): 1.6 ± 0.5 µM
IC50 [1, 11]: 1.1 ± 0.1 µM
IC50 [1, 12]: 0.7 ± 0.2 µM
IC50 [1, 13]: 1.7 ± 0.1 µM
IC50 ([1]; Human immunodeficiency virus 1, TZM-bl, read-out: IC50 (μM) ± S.D., subtype B, NIH # 11023, ENV TRO, clone 11): 1.3 ± 0.2 µM
IC50 [1, 14]: 1.8 ± 0.2 µM
IC50 [1, 15]: 1.5 ± 0.3 µM
IC50 [1, 16]: 1.4 ± 0.2 µM
IC50 [1, 17]: 1.3 ± 0.2 µM
IC50 [1, 18]: 4 ± 0.8 µM
IC50 ([1]; read-out: IC50 (μM) ± S.D., subtype B, NIH # 11058, ENV SC422661.8): 0.6 ± 0.1 µM
IC50 ([1]; subtype A, ENV BG505-T332N, read-out: IC50 (μM) ± S.D.): 2.4 ± 1 µM
IC50 ([1]; subtype D, NIH # 11912, ENV QA013.701.ENV.M12, read-out: IC50 (μM) ± S.D.): 2.4 ± 0.2 µM
IC50 ([4]; Human immunodeficiency virus 1, MT2, read-out: IC50 (μm), Laboratory strain RF, subtype B, MT-2, co-receptor R5X4): 7300 ± 600 nM
CC50 (PBMC): ~36000 nM

CC1(C)CC(NC(=O)C(=O)Nc2ccc(Cl)cc2)CC(C)(C)N1 [NBD-556]
CC50 (MT-2 cells): > 280000 nM
IC50 (HIV-1 Integrase): > 200 µM
IC50 ([4]; Laboratory strain SF2, subtype B, MT-2, co-receptor R5X4, read-out: IC50 (μm)): 118000 nM
IC50 [5]: 118000 nM
CC50 (PBMC): > 280000 nM
